In ChEMBL document CHEMBL3885881, “DrugMatrix”:

Species on record: Rattus norvegicus
Test: DrugMatrix - Regimen: Daily Repeat
Type: toxicity, organism-based, Sprague-Dawley
Design: regimen Daily Repeat, gender Male, age 6-8 weeks
Details: in vivo, po, route oral GAVAGE, vehicle .5 % CMC; for ALANINE AMINOTRANSFERASE / ALBUMIN / ALKALINE PHOSPHATASE / ASPARTATE AMINOTRANSFERASE / BLOOD UREA NITROGEN / CARBON DIOXIDE / CHLORIDE / CHOLESTEROL / CREATINE PHOSPHOKINASE / CREATININE / GLUCOSE / LACTATE DEHYDROGENASE / LIPASE / PHOSPHORUS / POTASSIUM / SODIUM / TOTAL BILIRUBIN / TOTAL PROTEIN / URIC ACID: tissue Plasma; for ABSOLUTE BASOPHIL / ABSOLUTE EOSINOPHIL / ABSOLUTE LYMPHOCYTE / ABSOLUTE MONOCYTE / ABSOLUTE SEGMENTED NEUTROPHIL / BASOPHIL / EOSINOPHIL / ERYTHROCYTE COUNT / HEMATOCRIT / HEMOGLOBIN / LEUKOCYTE COUNT / LYMPHOCYTE / MEAN CORPUSCULAR HEMOGLOBIN / MEAN CORPUSCULAR HEMOGLOBIN CONCENTRATION / MEAN CORPUSCULAR VOLUME / MONOCYTE / NEUTROPHIL / NUCLEATED RED BLOOD CELLS / PLATELET COUNT: tissue Blood
[1] = 88 mg/kg, 72 h, dose level Low, time 3 day
[2] = 88 mg/kg, 120 h, dose level Low, time 5 day
[3] = 2000 mg/kg, 72 h, dose level High, time 3 day

Question: With `CC(C)[C@H](N)C(=O)OCCOCn1cnc2c(=O)[nH]c(N)nc21` [VALACYCLOVIR] as the compound, how does the “ALANINE AMINOTRANSFERASE” value [1] read?
Answer: 55 u/L

Question: And the ALBUMIN [1]?
Answer: 4.33 G/DL

Question: What about the “ALKALINE PHOSPHATASE” value [1] of the same compound?
Answer: 415.33 u/L

Question: What about the “ASPARTATE AMINOTRANSFERASE” value [1] of the same compound?
Answer: 100.67 u/L

Question: What about the “BLOOD UREA NITROGEN” value [1] of the same compound?
Answer: 14.67 mg/dL

Question: And the “CARBON DIOXIDE” value [1]?
Answer: 27 mmol/L

Question: And the CHLORIDE [1]?
Answer: 101 MEQ/L

Question: What about the CHOLESTEROL [1] of the same compound?
Answer: 77 mg/dL

Question: What about the “CREATINE PHOSPHOKINASE” value [1] of the same compound?
Answer: 717.67 u/L

Question: And the CREATININE [1]?
Answer: 0.2 mg/dL

Question: What about the GLUCOSE [1] of the same compound?
Answer: 147.33 mg/dL

Question: And the “LACTATE DEHYDROGENASE” value [1]?
Answer: 667.67 u/L

Question: What about the LIPASE [1] of the same compound?
Answer: 10.67 u/L

Question: What about the PHOSPHORUS [1] of the same compound?
Answer: 12.5 mg/dL

Question: What about the POTASSIUM [1] of the same compound?
Answer: 6.48 MEQ/L

Question: What about the SODIUM [1] of the same compound?
Answer: 144.3 MEQ/L

Question: And the “TOTAL BILIRUBIN” value [1]?
Answer: 0.2 mg/dL

Question: And the “TOTAL PROTEIN” value [1]?
Answer: 6.23 G/DL

Question: What about the “URIC ACID” value [1] of the same compound?
Answer: 1.4 mg/dL

Question: What about the “ABSOLUTE BASOPHIL” value [2] of the same compound?
Answer: 0 CELLS/uL

Question: And the “ABSOLUTE EOSINOPHIL” value [2]?
Answer: 94 CELLS/uL

Question: What about the “ABSOLUTE LYMPHOCYTE” value [2] of the same compound?
Answer: 9072.33 CELLS/uL

Question: What about the “ABSOLUTE MONOCYTE” value [2] of the same compound?
Answer: 117.33 CELLS/uL

Question: And the “ABSOLUTE SEGMENTED NEUTROPHIL” value [2]?
Answer: 1283 CELLS/uL

Question: What about the BASOPHIL [2] of the same compound?
Answer: 0%

Question: And the EOSINOPHIL [2]?
Answer: 0.67%

Question: And the “ERYTHROCYTE COUNT” value [2]?
Answer: 5.42 x10E6/uL

Question: What about the HEMATOCRIT [2] of the same compound?
Answer: 33.93%

Question: What about the HEMOGLOBIN [2] of the same compound?
Answer: 13.17 G/DL

Question: What about the “LEUKOCYTE COUNT” value [2] of the same compound?
Answer: 10.57 x10E3/uL

Question: And the LYMPHOCYTE [2]?
Answer: 86.33%

Question: And the “MEAN CORPUSCULAR HEMOGLOBIN” value [2]?
Answer: 24.3 pg

Question: What about the “MEAN CORPUSCULAR HEMOGLOBIN CONCENTRATION” value [2] of the same compound?
Answer: 38.83 G/DL

Question: What about the “MEAN CORPUSCULAR VOLUME” value [2] of the same compound?
Answer: 62.57 fL

Question: And the MONOCYTE [2]?
Answer: 1.33%

Question: What about the NEUTROPHIL [2] of the same compound?
Answer: 11.67%

Question: What about the “NUCLEATED RED BLOOD CELLS” value [2] of the same compound?
Answer: 0 /100WBC

Question: What about the “PLATELET COUNT” value [2] of the same compound?
Answer: 1317.67 x10E3/uL

Question: And the “ALANINE AMINOTRANSFERASE” value [2]?
Answer: 58.33 u/L

Question: And the ALBUMIN [2]?
Answer: 4.43 G/DL

Question: And the “ALKALINE PHOSPHATASE” value [2]?
Answer: 393 u/L

Question: What about the “ASPARTATE AMINOTRANSFERASE” value [2] of the same compound?
Answer: 91 u/L

Question: What about the “BLOOD UREA NITROGEN” value [2] of the same compound?
Answer: 18 mg/dL

Question: And the “CARBON DIOXIDE” value [2]?
Answer: 28.33 mmol/L

Question: What about the CHLORIDE [2] of the same compound?
Answer: 103.33 MEQ/L

Question: What about the CHOLESTEROL [2] of the same compound?
Answer: 75.33 mg/dL

Question: What about the “CREATINE PHOSPHOKINASE” value [2] of the same compound?
Answer: 215.67 u/L

Question: And the CREATININE [2]?
Answer: 0.21 mg/dL

Question: And the GLUCOSE [2]?
Answer: 137.33 mg/dL

Question: And the “LACTATE DEHYDROGENASE” value [2]?
Answer: 175.67 u/L

Question: And the LIPASE [2]?
Answer: 9.33 u/L

Question: And the PHOSPHORUS [2]?
Answer: 13.03 mg/dL

Question: And the POTASSIUM [2]?
Answer: 7.1 MEQ/L

Question: And the SODIUM [2]?
Answer: 147.83 MEQ/L

Question: What about the “TOTAL BILIRUBIN” value [2] of the same compound?
Answer: 0.23 mg/dL

Question: And the “TOTAL PROTEIN” value [2]?
Answer: 6.33 G/DL

Question: And the “URIC ACID” value [2]?
Answer: 1.57 mg/dL

Question: And the “ABSOLUTE BASOPHIL” value [3]?
Answer: 0 CELLS/uL

Question: What about the “ABSOLUTE EOSINOPHIL” value [3] of the same compound?
Answer: 83 CELLS/uL

Question: What about the “ABSOLUTE LYMPHOCYTE” value [3] of the same compound?
Answer: 8794.67 CELLS/uL

Question: And the “ABSOLUTE MONOCYTE” value [3]?
Answer: 95 CELLS/uL

Question: What about the “ABSOLUTE SEGMENTED NEUTROPHIL” value [3] of the same compound?
Answer: 994 CELLS/uL

Question: And the BASOPHIL [3]?
Answer: 0%

Question: And the EOSINOPHIL [3]?
Answer: 1%

Question: What about the “ERYTHROCYTE COUNT” value [3] of the same compound?
Answer: 4.99 x10E6/uL

Question: What about the HEMATOCRIT [3] of the same compound?
Answer: 31.53%

Question: What about the HEMOGLOBIN [3] of the same compound?
Answer: 12.63 G/DL

Question: What about the “LEUKOCYTE COUNT” value [3] of the same compound?
Answer: 9.97 x10E3/uL

Question: What about the LYMPHOCYTE [3] of the same compound?
Answer: 88%

Question: And the “MEAN CORPUSCULAR HEMOGLOBIN” value [3]?
Answer: 25.3 pg

Question: And the “MEAN CORPUSCULAR HEMOGLOBIN CONCENTRATION” value [3]?
Answer: 40.1 G/DL

Question: And the “MEAN CORPUSCULAR VOLUME” value [3]?
Answer: 63.07 fL

Question: What about the MONOCYTE [3] of the same compound?
Answer: 1%

Question: And the NEUTROPHIL [3]?
Answer: 10%

Question: What about the “NUCLEATED RED BLOOD CELLS” value [3] of the same compound?
Answer: 0 /100WBC

Question: And the “PLATELET COUNT” value [3]?
Answer: 1175 x10E3/uL

Question: What about the “ALANINE AMINOTRANSFERASE” value [3] of the same compound?
Answer: 43.33 u/L

Question: What about the ALBUMIN [3] of the same compound?
Answer: 4 G/DL

Question: What about the “ALKALINE PHOSPHATASE” value [3] of the same compound?
Answer: 329.67 u/L

Question: What about the “ASPARTATE AMINOTRANSFERASE” value [3] of the same compound?
Answer: 81.67 u/L

Question: What about the “BLOOD UREA NITROGEN” value [3] of the same compound?
Answer: 79.33 mg/dL

Question: And the “CARBON DIOXIDE” value [3]?
Answer: 22.67 mmol/L

Question: What about the CHLORIDE [3] of the same compound?
Answer: 101 MEQ/L

Question: And the CHOLESTEROL [3]?
Answer: 118.67 mg/dL

Question: And the “CREATINE PHOSPHOKINASE” value [3]?
Answer: 274.33 u/L

Question: And the CREATININE [3]?
Answer: 1.22 mg/dL

Question: And the GLUCOSE [3]?
Answer: 158.33 mg/dL

Question: What about the “LACTATE DEHYDROGENASE” value [3] of the same compound?
Answer: 182 u/L

Question: And the LIPASE [3]?
Answer: 10.67 u/L

Question: And the PHOSPHORUS [3]?
Answer: 10.07 mg/dL

Question: What about the POTASSIUM [3] of the same compound?
Answer: 5.9 MEQ/L

Question: What about the SODIUM [3] of the same compound?
Answer: 143.87 MEQ/L

Question: What about the “TOTAL BILIRUBIN” value [3] of the same compound?
Answer: 0.23 mg/dL

Question: And the “TOTAL PROTEIN” value [3]?
Answer: 6.3 G/DL

Question: What about the “URIC ACID” value [3] of the same compound?
Answer: 1.2 mg/dL
